The values that follow come from patent US5733913A, “6-Aryl pyrido[2,3-d] pyrimidines and naphthyridines for inhibiting protein tyrosine kinase mediated cellular proliferation” (priority 1995, dated 1998).

The target of assay [1] is T1, mouse PDGF-β receptor tyrosine kinase (Mus musculus, UniProt P05622).
T1 construct: a fragment of DNA that codes for the intracellular tyrosine kinase domain; made in house; host or cells: Sf9 insect cells (baculovirus), cell lysate
As to the kind of experiment: PDGF receptor tyrosine kinase assay. The format is biochemical. Conditions: read-out: Inhibition of Protein Tyrosine Kinases, PDGF, IC50. In outline:
(§1)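 Intracellular kinase domains expressed in baculovirus-infected SF9 cells; crude lysate used as enzyme. Inhibitor preincubated 10 min at 25 °C with lysate in pH 7.0 Hepes buffer with 10 mM MnCl2 and poly(Glu-Tyr) 4:1, then γ-32P-ATP (50 μM ATP) added for 10 min at 25 °C. TCA-precipitated 32P on filters counted, no-enzyme background subtracted.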

Assay [2] has as its target T2, human FGF-1 (flg) receptor tyrosine kinase (Homo sapiens, UniProt P11362).
T2 construct: a fragment of DNA that codes for the intracellular tyrosine kinase domain; made in house; host or cells: Sf9 insect cells (baculovirus), cell lysate
The experiment in a line: FGF receptor tyrosine kinase assay. The format is biochemical. Conditions: read-out: Inhibition of Protein Tyrosine Kinases, FGF, IC50. In outline:
as §1

The next assay concerns the target T3, C-src kinase (Homo sapiens, UniProt P12931).
T3 construct: made in house; host or cells: baculovirus-infected insect cells
As to the kind of experiment: C-src kinase assay. The format is biochemical. Conditions: read-out: Inhibition of Protein Tyrosine Kinases, C-src, IC50. In outline:
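Baculovirus-expressed c-src immunopurified on antibody-coated latex beads, assayed in 40 mM Tris pH 7.5, 5 mM MgCl2 with poly GluTyr substrate and 5 μM ATP plus 32P-ATP. Reaction 10 min at room temperature, TCA-quenched, filtered; incorporated label counted by scintillation.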

For another assay, the system named is Streptococcus pneumoniae. As to the kind of experiment: standard in vitro assays of antibacterial activity. The format is cell-based. Conditions: Gram+ bacterial strain. The text has this:
These compounds are potent inhibitors of one or more of the protein kinases, PDGF, FGF, EGF, V-src, and C-src. The invention compounds are thus useful in treating atherosclerosis, restenosis, and cancer. Specific tumors to be treated with the compounds include small-cell lung carcinoma such as that described in An. Rev. Respir. Dis., 142:554-556 (1990); human breast cancer as described in Cancer Research, 52:4773-4778 (1992); low grade human bladder carcinomas of the type described in Cancer Research, 52:1457-1462 (1992); human colorectal cancer as discussed in J. Clin. Invest., 91:53-60 (1993); and in J. Surg. Res., 54:293-294 (1993). The compounds also are useful as antibiotics against bacteria such as Streptococcus pneumoniae. […] The compounds additionally are useful as herbicides against a wide variety of undesirable plants such as broad leaf weeds and grasses.

The subject of the next assay is V-src kinase. The experiment in a line: V-src kinase assay. The format is biochemical. The conditions noted are these: at 50 μM. In outline:
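Baculovirus-expressed v-src or c-src, immunopurified on antibody-coated latex beads, phosphorylated poly GluTyr with 5 μM ATP including [32P]-ATP in Tris pH 7.5/MgCl2. Reaction ran 10 min at room temperature, TCA/pyrophosphate quench, then filtered. Incorporated label counted by liquid scintillation and compared with solvent control.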

The next assay concerns PDGF receptor. The experiment in a line: PDGF receptor autophosphorylation in RASMC. The format is cell-based, rat. Conditions: PDGF-BB 30 ng/mL, read-out: Inhibition of PDGF Stimulated Receptor Auto Phosphorylation (IC50).
The test system of assay [3] is Rat aorta smooth muscle cells (RASMC). The experiment in a line: [3H]-Thymidine incorporation assay in RASMC. The format is cell-based. The conditions noted are these: read-out: Inhibition of Growth Factor Stimulated Uptake of [3H]-thymidine (IC50). How it is done: Cell Culture Rat aorta smooth muscle cells (RASMC) were isolated from the thoracic aorta of rats and explanted according to the method of Ross, J. Cell. Biol., 30:172-186 (1971). Cells were grown in Dulbecco's modified Eagle's medium (DMEM, Gibco) containing 10% fetal calf serum (FBS, Hyclone, Logan, Utah), 1% glutamine (Gibco) and 1% penicillin/streptomycin (Gibco). Cells were identified as smooth muscle cells by their "hill and valley" growth pattern and by fluorescent staining with a monoclonal antibody specific for SMC […] (Sigma). RASMC were used between passages 5 and 20 for all experiments. Test compounds were prepared in dimethylsulfoxide (DMSO) in order to achieve consistency in the vehicle and to ensure compound solubility. Appropriate DMSO controls were simultaneously evaluated with the test compounds. […] RASMC were plated into a 24-well plate (30,000 cells/well) in DMEM with 10% FBS. After 4 days, cells reached confluence and were made quiescent by incubation in DMEM/F12 medium (Gibco) containing 0.2% FBS for another 2 days. […] […] The acid-insoluble fraction was lysed in 0.75 mL 0.25N NaOH and the radioactivity determined by liquid scintillation counting. IC50 values were determined graphically.
A general note: Incorporation of labelled thymidine or its analogues reports DNA synthesis.

Assay [4] deals with T4, Human EGF receptor tyrosine kinase (Homo sapiens, UniProt P00533).
T4 construct: isolated from A431 epidermoid carcinoma cells; endogenous in cells; host or cells: A431 epidermoid carcinoma cells (Triton lysate, wheat germ agglutinin eluate)
T4 sequence (P00533 25-1210): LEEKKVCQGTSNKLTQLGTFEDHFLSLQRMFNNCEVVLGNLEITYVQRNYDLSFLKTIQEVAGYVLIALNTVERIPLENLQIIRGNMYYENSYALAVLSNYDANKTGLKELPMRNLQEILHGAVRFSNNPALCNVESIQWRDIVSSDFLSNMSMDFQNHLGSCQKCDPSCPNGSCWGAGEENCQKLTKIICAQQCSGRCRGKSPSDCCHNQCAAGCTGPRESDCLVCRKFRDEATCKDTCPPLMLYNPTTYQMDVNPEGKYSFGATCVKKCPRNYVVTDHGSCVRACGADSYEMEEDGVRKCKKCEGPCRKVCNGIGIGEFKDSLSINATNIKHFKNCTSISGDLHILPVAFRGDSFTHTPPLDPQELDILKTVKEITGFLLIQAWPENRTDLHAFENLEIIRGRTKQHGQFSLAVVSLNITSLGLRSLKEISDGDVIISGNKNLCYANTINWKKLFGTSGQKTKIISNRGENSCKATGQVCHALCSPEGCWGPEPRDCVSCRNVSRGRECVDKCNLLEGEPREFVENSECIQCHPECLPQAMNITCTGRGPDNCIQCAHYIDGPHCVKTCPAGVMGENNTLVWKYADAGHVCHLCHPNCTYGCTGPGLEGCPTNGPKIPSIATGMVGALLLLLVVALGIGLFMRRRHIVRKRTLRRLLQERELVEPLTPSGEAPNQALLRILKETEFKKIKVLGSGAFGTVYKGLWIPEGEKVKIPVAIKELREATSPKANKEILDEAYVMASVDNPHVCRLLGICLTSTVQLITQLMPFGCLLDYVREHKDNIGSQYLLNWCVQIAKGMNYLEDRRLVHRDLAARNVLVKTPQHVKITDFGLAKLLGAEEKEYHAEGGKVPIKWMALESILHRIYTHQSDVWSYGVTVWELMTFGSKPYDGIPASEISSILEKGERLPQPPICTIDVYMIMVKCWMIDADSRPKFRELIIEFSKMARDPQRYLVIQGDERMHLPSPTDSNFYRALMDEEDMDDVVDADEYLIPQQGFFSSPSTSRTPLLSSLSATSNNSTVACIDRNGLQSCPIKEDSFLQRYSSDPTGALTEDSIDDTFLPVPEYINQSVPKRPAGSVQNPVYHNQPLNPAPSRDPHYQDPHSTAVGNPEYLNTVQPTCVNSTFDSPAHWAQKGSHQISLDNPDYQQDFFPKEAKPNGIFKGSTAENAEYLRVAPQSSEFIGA
The experiment in a line: EGF receptor tyrosine kinase assay. The format is biochemical. The conditions noted are these: read-out: Inhibition of Protein Tyrosine Kinases, EGF, IC50. How it is done: Purification of Epidermal Growth Factor Receptor Tyrosine Kinase
Human EGF receptor tyrosine kinase was isolated from A431 epidermoid carcinoma cells by the following methods. Cells were grown in roller bottles in 50% Delbuco's Modified Eagle and 50% HAM F-12 nutrient media (Gibco) containing 10% fetal calf serum. Approximately 10^9 cells were lysed in two volumes of buffer containing 20 mM 2-(4N-[2-hydroxyethyl]piperazin-1-yl)ethanesulfonic acid, pH 7.4, 5 mM ethylene glycol bis(2-aminoethyl ether)N,N,N',N'-tetraacetic acid, 1% Triton X-100, 10% glycerol, 0.1 mM sodium orthovanadate, 5 mM sodium fluoride, 4 mM pyrophosphate, 4 mM benzamide, 1 mM dithiothreitol, 80 μg/mL aprotinin, 40 μg/mL leupeptin, and 1 mM phenylmethylsulfonyl fluoride. After centrifugation at 25,000×g for 10 minutes, the supernatant was equilibrated for 2 hours at 4° C. with 10 mL of wheat germ agglutinin sepharose that was previously equilibrated with 50 mM Hepes, 10% glycerol, 0.1% Triton X-100 and 150 mM NaCl, pH 7.5, (equilibration buffer). Contaminating proteins were washed from the resin with 1M NaCl in equilibration buffer, and the enzyme was eluted with 0.5M N-acetyl-1-D-glucosamine in equilibration buffer.
Determination of IC50 Values
The reaction was terminated by the addition of 2 mL of 75 mM phosphoric acid and passed through a 2.5-cm phosphocellulose filter disc to bind the peptide. The filter was washed five times with 75 mM phosphoric acid and placed in a vial along with 5 mL of scintillation fluid (Ready gel Beckman).

Read-outs that look alike come from different tables or passages of the source. A value given as a limit tells only on which side of the number the result lay.

T3 sequence (P12931 whole entry): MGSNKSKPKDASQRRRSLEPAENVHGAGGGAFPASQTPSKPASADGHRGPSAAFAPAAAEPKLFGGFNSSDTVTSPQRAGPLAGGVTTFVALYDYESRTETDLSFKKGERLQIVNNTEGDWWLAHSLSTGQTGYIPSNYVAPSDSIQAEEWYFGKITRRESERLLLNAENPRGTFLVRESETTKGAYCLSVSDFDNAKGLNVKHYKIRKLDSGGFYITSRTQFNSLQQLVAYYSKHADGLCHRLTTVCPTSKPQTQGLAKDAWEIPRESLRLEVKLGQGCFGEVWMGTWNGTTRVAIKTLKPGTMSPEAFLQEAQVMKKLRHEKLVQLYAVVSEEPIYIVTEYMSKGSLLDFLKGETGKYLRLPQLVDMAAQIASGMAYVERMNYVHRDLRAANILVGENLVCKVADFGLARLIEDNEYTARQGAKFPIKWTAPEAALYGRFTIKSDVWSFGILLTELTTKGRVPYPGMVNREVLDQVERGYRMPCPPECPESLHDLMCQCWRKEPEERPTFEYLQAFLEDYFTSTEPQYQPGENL
T1 sequence (P05622 599-961 limits assumed): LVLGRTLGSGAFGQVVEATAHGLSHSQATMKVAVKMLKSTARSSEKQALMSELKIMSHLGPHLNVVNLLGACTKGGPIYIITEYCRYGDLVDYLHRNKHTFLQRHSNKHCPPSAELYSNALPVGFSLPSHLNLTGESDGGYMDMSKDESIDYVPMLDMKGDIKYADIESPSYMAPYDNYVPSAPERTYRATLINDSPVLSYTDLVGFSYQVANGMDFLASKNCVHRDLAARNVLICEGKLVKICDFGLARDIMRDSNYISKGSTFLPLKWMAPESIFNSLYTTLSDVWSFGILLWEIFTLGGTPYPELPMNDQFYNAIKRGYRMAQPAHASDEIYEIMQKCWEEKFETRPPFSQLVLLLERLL
T2 sequence (P11362 478-767 limits assumed): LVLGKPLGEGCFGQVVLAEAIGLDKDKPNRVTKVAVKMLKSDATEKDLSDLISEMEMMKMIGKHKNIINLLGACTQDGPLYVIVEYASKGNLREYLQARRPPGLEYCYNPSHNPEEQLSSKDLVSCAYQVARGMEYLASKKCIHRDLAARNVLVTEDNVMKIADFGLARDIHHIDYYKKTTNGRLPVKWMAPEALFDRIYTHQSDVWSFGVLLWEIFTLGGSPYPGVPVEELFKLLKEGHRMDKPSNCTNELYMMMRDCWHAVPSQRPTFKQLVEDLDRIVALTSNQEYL

The term IC50 denotes the concentration that inhibits the measured activity by half. For the compound `CCCCNc1nc2nc(N)ncc2cc1-c1ccccc1` [Example 9, N^7 -Butyl-6-phenyl-pyrido[2,3-d]pyrimidine-2,7-diamine], the IC50 was determined as 25100 nM in assay [1], 10600 nM in assay [2] and 18300 nM on C-src kinase. Further, the “activity against Streptococcus pneumoniae” value in the assay on Streptococcus pneumoniae is recorded as “exhibited activity”.

For the compound `CC(C)(C)NC(=O)Nc1nc2nc(N)ncc2cc1-c1c(Cl)cccc1Cl` [Example 3, 1-[2-Amino-6-(2,6-dichlorophenyl)-pyrido[2,3-d]pyrimidin-7-yl]-3-tert-butylurea], the half-inhibitory concentration (IC50) in assay [1] is 1250 nM; in assay [2] it was 140 nM; in the assay with PDGF receptor it was 970 nM; in assay [3] (FGF stimulated), 900 nM; in assay [3] (PDGF stimulated), 2700 nM. Further, the “Inhibition of Protein Tyrosine Kinases, V-src, % Inhibition” value with V-src kinase was found to be 46.8%.

As for `CCN(CC)CCCCNc1ncc2cc(-c3c(Cl)cccc3Cl)c(NC(=O)NC(C)(C)C)nc2n1` [Example 123, 1-tert-Butyl-3-[6-(2,6-dichlorophenyl)-2-(4-diethyl-amino-butylamino)-pyrido[2,3-d]pyrimidin-7-yl]-urea], the IC50 was 29 nM on C-src kinase, 296 nM with PDGF receptor, 320 nM in assay [3] (FGF stimulated) and less than 300 nM in assay [3] (PDGF stimulated).

On to `CCNC(=O)Nc1nc2nc(NCCCCN(CC)CC)ncc2cc1-c1c(Cl)cccc1Cl` [Example 124, 1-[6-(2,6-Dichlorophenyl)-2-(4-diethylamino-butyl-amino)-pyrido[2,3-d]pyrimidin-7-yl]-3-ethyl-urea], for which the IC50 in the assay on PDGF receptor amounted to 245 nM; in assay [3] (FGF stimulated), 930 nM; in assay [3] (PDGF stimulated) it was 550 nM.

Turning to `CN1CCN(CCCNc2ncc3cc(-c4c(Cl)cccc4Cl)c(NC(=O)NC(C)(C)C)nc3n2)CC1` [Example 52, 1-tert-Butyl-3-{6-(2,6-dichlorophenyl)-2-[3-(4-methyl-piperazin-1-yl)-propylamino]-pyrido[2,3-d]pyrimidin-7-yl}-urea], the figures for the IC50 (with PDGF receptor; in assay [3] (FGF stimulated); in assay [3] (PDGF stimulated)) were 241 nM, 400 nM and 450 nM, respectively.

With `Nc1cc2nc(N)c(-c3c(Cl)cccc3Cl)cc2cn1` [Example 18, 3-(2,6-Dichlorophenyl)-[1,6]-naphthyridine-2,7-diamine], the IC50 in assay [1] came to 21300 nM; in assay [2], 1190 nM; in assay [4] it was 18200 nM; at C-src kinase, 514 nM. The “Inhibition of Protein Tyrosine Kinases, V-src, % Inhibition” value in the assay with V-src kinase came to 21.4%. The “activity against Streptococcus pneumoniae” value in the assay on Streptococcus pneumoniae is recorded as “exhibited activity”.
